The assay concerns DSS-induced IBD in mice. The assay can be described thus: Intervention effect on DSS-induced acute IBD mouse model. The class given is in vivo, Male C57BL6 mice. Conditions: DSS 2.5 wt % induced acute IBD mice, 50 μg/kg intragastric; for colonic histopathologic score / colon length: 7 days pre-administration then daily with DSS, x±SD; for colonic histopathologic score: HE staining; for colon length: in cm (unit assumed). As to the method:
The administration of a DSS solution with a specified concentration to mice can induce an acute IBD model characterized by diarrhea, hematochezia, ulcer, and granulocyte infiltration. Mice were randomly grouped according to body weights of the mice. 40 healthy male C57BL6 mice were divided into four groups each with 10 mice:
blank control group: the mice were each intragastrically administered with water every day at a volume of 0.4 mL/20 g;
model group: the mice were each intragastrically administered with a DSS aqueous solution of a mass fraction of 2.5 wt % consecutively for 7 days, where the DSS aqueous solution was freshly prepared and changed every day;
MIMP positive control group: the mice were each given a pre-administration process for one week, that is, the mice were each intragastrically administered with an MIMP solution of a mass fraction of 50 μg/kg for the first 7 days, and then from day 8, the mice were each intragastrically administered with a DSS aqueous solution of a mass fraction of 2.5 wt % (at a volume of 0.4 mL/20 g) and an MIMP solution of a mass fraction of 50 μg/kg (at a volume of 0.4 mL/20 g) every day; and
MP-B experimental group: the mice were each given a pre-administration process for one week, that is, the mice were each intragastrically administered with an MP-B solution of a mass fraction of 50 μg/kg for the first 7 days, and from day 8, the mice were each intragastrically administered with a DSS aqueous solution of a mass fraction of 2.5 wt % (at a volume of 0.4 mL/20 g) and an MP-B solution of a mass fraction of 50 μg/kg (at a volume of 0.4 mL/20 g) every day.
The body weight changes of mice in each group were recorded every day to determine whether the acute IBD mouse model was successfully established.
A mouse colon between an anus end to an ileocecal end was integrally collected, and a length of the colon was measured; and the colon was dissected along a longitudinal axis, feces therein were rinsed off, and then the colon was stored in 4% paramethanol.
The colon sample stored in 4% paramethanol in step 1.2 was subjected to histopathological section, stained with hematoxylin-eosin (HE), and dehydrated, obtained sections were sealed and examined under an optical microscope, and the histopathological scoring was conducted by two blind examination operators:
Experimental data in the above experimental method were expressed as (x±SD), the GraphPad Prism (ver. 8.0, GraphPad Software Inc., San Diego, Calif., USA) was used to plot a chart, the SPSS Program (ver. 25.0, SPSS Inc., Chicago, Ill., USA) was used for statistical test, and one-way ANOVA or independent two-sample t-test were used for significance test when the normality and homogeneity of variances were met. It was assumed that α=0.05, and P<0.05 indicates a statistically significant difference.

In the case of “SPLGSLDGRETMYNLGGVKYLFARMDQLKKQ (SPLGSLDGRXTMYNLXGVKYLFARXDQLKKQ; Sequence is synthesized; (10)..(10) Xaa can be Arg, Phe, Glu, Thr, or absent; (16)..(16) Xaa can be Asn, Val, Leu, Gly, or absent; (25)..(25) Xaa can be Ser, Glu, Met, Arg, or absent) [MP-B]”, the “colonic histopathological observation (HE staining micrographs)” value was “no obvious inflammation”, the colonic histopathologic score came to 1.4±0.6 and the colon length was found to be 8.0±0.5.

B1: THTVGSYFSVQNGYVGAFSQALGNSEYAMNSPLGSLDGRTTMYNLLGVKYLFAREDQ LKKQ (peptide, listed as Lactobacillus plantarum)
chain: THTVGSYFSVQNGYVGAFSQALGNSEYAMNSPLGSLDGRTTMYNLLGVKYLFAREDQLKKQ
notes: positive control
Consider B1, for which the colonic histopathologic score stood at 3.1±0.2 and the colon length was determined as 7.6±0.5.

These data come from patent US20230051694A1, “POLYPEPTIDE FRAGMENT B (MP-B) AND USE THEREOF” (SHANGHAI LONGXIN BIOMEDICAL TECHNOLOGY CO., LTD., priority 2021, published 2023).
